Patent US20180177147A1, “METHODS AND COMPOSITIONS FOR CULTIVATING PLANTS AND ARTIFICIAL PLANT SEEDS” (E I DU PONT DE NEMOURS AND COMPANY, priority 2014, published 2018)

Key:
sugarcane choplets [1] = assay: Survival in synthetic soil of choplets from hardened plantlets after one-day immersion in water or hormone media; assay type: in vivo; settings: 1-day choplet treatment, 40 planted; for % surviving: day 10 in soil; for alive @ day 10: soil, artificial growth chamber
Experimental: This example describes choplet growth outcomes in soil (survival; morphology) when the plantlets were hardened by various treatments such as nutrient deprivation or osmoticum exposure. The hardening protocols for the plantlets were gradual (multi-day) acclimation of the tissue to decreasing sucrose and/or to increasing polyethylene glycol 6000 (PEG-6000) in LPM. The hardening treatment was evaluated at two stages: the growth of treated plantlets transplanted to synthetic soil; and the survival of choplets from plantlets in a controlled environment.
In another study, three hardening treatments were evaluated but group C hardening treatment was modified: Group C plantlets were grown in LPM for 7 days followed by transfer every two days to a medium containing higher PEG-6000 levels until the medium content had 3% sucrose and 0.2% PEG-6000. At the end of growth in tissue culture (17 days), the plantlets were transplanted to soil.
The second test of these treated plantlets was to produce choplets and evaluate the choplets' success when transplanted to synthetic soil (Table 4). Choplets were produced from sugarcane plantlets followed by a one-day immersion in a media of water, a known plant media, or a known plant media or water containing a growth hormone, such as (6-benzylaminopurine (BAP) or gibberellins 3 (GA3)). […] Choplet preparation may comprise plantlet hardening treatment and/or media treatment after formation of a choplet.

sugarcane choplets [2] = assay: Soil outcomes of unembedded and embedded (F4 paper tube artificial seed) choplets incubated in various media; assay type: in vivo; settings: 21 hr in bathing solution, MetroMix soil
Experimental: This example describes the soil growth advantage conferred by the enclosure or encapsulation of sugarcane choplets in paper tubes with Parafilm™ covers at bottom and top. The choplets were from plantlets produced by a standard plantlet production process or from a hardening treatment (e.g. high CO2) in the temporary immersion Adaptis™ bioreactors. The choplets were incubated in various media. The media were sterile water; LPM; BAP=[…] prepared by solubilizing solid in dimethylsulfoxide to make 1 mg/mL stock then diluted stock solution in water (50 uL to 50 mL final volume) to prepare 1 mg/L working solution; GA3=giberellin 3 prepared by diluting commercial stock solution (1 mg/mL) in water to form a 1 mg/L working solution. The choplets were segregated into 4 groups of at least 50 choplets. Each group of choplets was weighed on a petri dish before addition of the 7 mL of bathing solution: water; LPM; BAP; and GA3. Each dish was covered and the edge was sealed with 3M Micropore™ tape. The petri dishes were secured to a nutator inside a walk-in growth chamber for 21 hr. For each choplet group, either ten (10) or twenty (20) F4 paper seed structures containing MetroMix™ soil and 200 uL water were assembled with triblock top and bottom lids. The structures were transplanted in a flat containing water-saturated MetroMix™ soil such that the top of the seed design is flush with the top of the soil surface. Encapsulating the choplet in an artificial seed provided improvement in soil survival for all media incubation groups except GA3.

[3] = hardening Group B (lowered sucrose)
[4] = choplets in F4 paper tube artificial seeds

In the case of C=C1C[C@]23C[C@@]1(O)CC[C@H]2[C@@]12C=C[C@H](O)[C@@](C)(C(=O)O1)[C@H]2[C@@H]3C(=O)O [GA3, gibberellins 3], the “% surviving” value (sugarcane choplets [1]; hardening Group A (LPM)) is reported as 10%, the “alive @ day 10” value (sugarcane choplets [1]; hardening Group A (LPM)) is reported as 4 and the “% surviving” value (sugarcane choplets [1]; [3]) is reported as 25%. The “alive @ day 10” value (sugarcane choplets [1]; [3]) was 10, the “% surviving” value (sugarcane choplets [1]; hardening Group C (PEG-6000)) was 38% and the “alive @ day 10” value (sugarcane choplets [1]; hardening Group C (PEG-6000)) was 15. For the same compound, the “Surviving on day 6” value (sugarcane choplets [2]; [4]) was 20, the “Surviving on day 17 (% surviving)” value (sugarcane choplets [2]; [4]) was 30% and the “Surviving on day 17 (number)” value (sugarcane choplets [2]; [4]) was 6. The “Surviving on day 6” value (sugarcane choplets [2]; unembedded choplets) was 9, the “Surviving on day 17 (% surviving)” value (sugarcane choplets [2]; unembedded choplets) was 29% and the “Surviving on day 17 (number)” value (sugarcane choplets [2]; unembedded choplets) was 4.

For c1ccc(CNc2ncnc3nc[nH]c23)cc1 [BAP, 6-benzylaminopurine], the “% surviving” value (sugarcane choplets [1]; hardening Group A (LPM)) was 18%, the “alive @ day 10” value (sugarcane choplets [1]; hardening Group A (LPM)) was 7 and the “% surviving” value (sugarcane choplets [1]; [3]) was 28%. For the same compound, the “alive @ day 10” value (sugarcane choplets [1]; [3]) was 11, the “% surviving” value (sugarcane choplets [1]; hardening Group C (PEG-6000)) was 25% and the “alive @ day 10” value (sugarcane choplets [1]; hardening Group C (PEG-6000)) was 10. For the same compound, the “Surviving on day 6” value (sugarcane choplets [2]; [4]) was 20, the “Surviving on day 17 (% surviving)” value (sugarcane choplets [2]; [4]) was 55% and the “Surviving on day 17 (number)” value (sugarcane choplets [2]; [4]) was 11. For the same compound, the “Surviving on day 6” value (sugarcane choplets [2]; unembedded choplets) was 6, the “Surviving on day 17 (% surviving)” value (sugarcane choplets [2]; unembedded choplets) was 7% and the “Surviving on day 17 (number)” value (sugarcane choplets [2]; unembedded choplets) was 1.
